For one assay, the system named is KB. In words: Cytotoxicity against human KB cells. It is filed as functional, cell-based.
The next assay has as its system L1210. In words: Cytotoxicity against mouse L1210 cells. It is filed as functional, cell-based.

Molecules are shown by their SMILES. ≈ marks a conversion by molar mass, not a printed value.

As to `C=C1CCC[C@]2(C)CC[C@@H](C(C)C)[C@H](NC(=O)N[C@]3(C)CC[C@@H]4[C@H]([C@@H]5[C@H](C)CC[C@H]53)C4(C)C)[C@@H]12` [HALICHONADIN E], the values for the IC50 in the assay with KB and with L1210 were 2.6 µg/mL (≈ 5.55 µM) and 3 µg/mL (≈ 6.4 µM), respectively.

As a reminder, the IC50 is the concentration that inhibits the measured activity by half. A higher IC50 goes with a need for much substance.
